The experiment addresses Recombinant PRC2 (EZH2-Y641F) (Homo sapiens, UniProt Q15910, Y641F). The experiment can be described thus: In vitro methyltransferase activity test (LANCE Ultra).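 Also: compounds tested as an 8-point threefold dilution series, fluorescence read after 1 h detection step at room temperature, IC50 derived from a four-parameter curve fit.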 To be noted: LANCE Ultra detection, 3 hours reaction. Background: Time-resolved FRET reads energy transfer from a long-lived donor to a nearby acceptor.
The mark [1] stands for this setting: EZH2 Y641F IC50, Recombinant PRC2 (EZH2-Y641F).

Read-outs that look alike come from different tables or passages of the source.

Recombinant PRC2 (EZH2-Y641F), sequence (Q15910 whole entry Y641F): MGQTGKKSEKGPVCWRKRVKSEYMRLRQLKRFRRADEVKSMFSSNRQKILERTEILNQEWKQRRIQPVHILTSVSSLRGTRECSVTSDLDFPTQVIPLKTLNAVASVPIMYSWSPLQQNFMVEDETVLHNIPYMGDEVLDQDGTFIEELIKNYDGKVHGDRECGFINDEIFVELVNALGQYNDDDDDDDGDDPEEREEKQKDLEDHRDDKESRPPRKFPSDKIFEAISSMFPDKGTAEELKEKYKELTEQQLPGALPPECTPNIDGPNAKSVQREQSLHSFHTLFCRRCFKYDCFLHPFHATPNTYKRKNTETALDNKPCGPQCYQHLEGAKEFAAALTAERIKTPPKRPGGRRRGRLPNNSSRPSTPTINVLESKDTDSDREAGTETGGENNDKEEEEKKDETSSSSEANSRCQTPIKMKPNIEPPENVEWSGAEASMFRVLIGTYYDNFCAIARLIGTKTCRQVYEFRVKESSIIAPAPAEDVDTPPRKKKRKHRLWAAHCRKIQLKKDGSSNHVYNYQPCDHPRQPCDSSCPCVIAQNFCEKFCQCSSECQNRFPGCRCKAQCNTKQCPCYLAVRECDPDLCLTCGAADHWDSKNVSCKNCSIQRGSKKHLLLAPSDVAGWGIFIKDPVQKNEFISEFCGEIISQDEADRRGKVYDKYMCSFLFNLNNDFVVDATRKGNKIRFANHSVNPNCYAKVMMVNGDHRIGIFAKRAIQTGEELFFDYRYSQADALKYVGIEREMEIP
Recombinant PRC2 (EZH2-Y641F), sequence (O75530 whole entry partner): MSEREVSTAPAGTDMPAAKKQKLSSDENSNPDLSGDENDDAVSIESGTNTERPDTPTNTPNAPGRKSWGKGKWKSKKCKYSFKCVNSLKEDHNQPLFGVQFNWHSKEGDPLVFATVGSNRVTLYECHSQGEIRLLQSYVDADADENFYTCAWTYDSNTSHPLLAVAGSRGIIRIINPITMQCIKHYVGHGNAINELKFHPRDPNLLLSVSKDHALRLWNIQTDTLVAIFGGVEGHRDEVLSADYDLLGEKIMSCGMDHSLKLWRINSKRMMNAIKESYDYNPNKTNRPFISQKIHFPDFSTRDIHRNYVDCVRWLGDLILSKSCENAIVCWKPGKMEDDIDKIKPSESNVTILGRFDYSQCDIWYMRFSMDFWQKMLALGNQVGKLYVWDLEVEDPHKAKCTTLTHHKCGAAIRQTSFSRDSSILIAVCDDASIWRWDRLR
Recombinant PRC2 (EZH2-Y641F), sequence (Q15022 whole entry partner): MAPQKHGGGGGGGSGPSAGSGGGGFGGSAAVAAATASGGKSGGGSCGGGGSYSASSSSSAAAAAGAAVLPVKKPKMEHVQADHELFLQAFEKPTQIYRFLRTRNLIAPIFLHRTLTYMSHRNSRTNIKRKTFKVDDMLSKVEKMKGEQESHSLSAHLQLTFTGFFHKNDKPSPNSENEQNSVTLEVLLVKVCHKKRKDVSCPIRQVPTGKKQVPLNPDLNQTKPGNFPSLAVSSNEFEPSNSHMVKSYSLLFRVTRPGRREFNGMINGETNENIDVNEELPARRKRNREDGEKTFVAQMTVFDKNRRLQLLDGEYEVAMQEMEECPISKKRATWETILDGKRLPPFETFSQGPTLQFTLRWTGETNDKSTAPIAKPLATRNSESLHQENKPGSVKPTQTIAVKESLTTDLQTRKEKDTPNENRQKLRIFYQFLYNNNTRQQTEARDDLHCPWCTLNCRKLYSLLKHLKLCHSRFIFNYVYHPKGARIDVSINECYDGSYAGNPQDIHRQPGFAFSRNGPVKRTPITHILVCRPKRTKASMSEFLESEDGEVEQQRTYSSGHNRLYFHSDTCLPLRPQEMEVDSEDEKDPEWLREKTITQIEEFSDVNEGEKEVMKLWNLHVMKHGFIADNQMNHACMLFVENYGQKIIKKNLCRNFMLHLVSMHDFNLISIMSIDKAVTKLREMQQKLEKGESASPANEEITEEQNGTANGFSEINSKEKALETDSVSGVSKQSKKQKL
Recombinant PRC2 (EZH2-Y641F), sequence (Q09028 whole entry partner): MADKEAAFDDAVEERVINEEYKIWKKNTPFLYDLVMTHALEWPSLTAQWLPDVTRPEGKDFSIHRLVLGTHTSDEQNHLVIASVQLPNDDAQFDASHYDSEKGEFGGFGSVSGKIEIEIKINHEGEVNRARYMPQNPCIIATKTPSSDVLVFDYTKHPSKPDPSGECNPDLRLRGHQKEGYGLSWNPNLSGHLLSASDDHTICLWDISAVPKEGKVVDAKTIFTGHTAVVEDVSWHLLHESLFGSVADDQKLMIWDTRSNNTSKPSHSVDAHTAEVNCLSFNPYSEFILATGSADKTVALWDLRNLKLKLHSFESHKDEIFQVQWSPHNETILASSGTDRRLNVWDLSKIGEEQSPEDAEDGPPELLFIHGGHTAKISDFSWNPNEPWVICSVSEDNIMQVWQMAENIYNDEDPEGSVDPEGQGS
Recombinant PRC2 (EZH2-Y641F), sequence (Q6ZN18 whole entry partner): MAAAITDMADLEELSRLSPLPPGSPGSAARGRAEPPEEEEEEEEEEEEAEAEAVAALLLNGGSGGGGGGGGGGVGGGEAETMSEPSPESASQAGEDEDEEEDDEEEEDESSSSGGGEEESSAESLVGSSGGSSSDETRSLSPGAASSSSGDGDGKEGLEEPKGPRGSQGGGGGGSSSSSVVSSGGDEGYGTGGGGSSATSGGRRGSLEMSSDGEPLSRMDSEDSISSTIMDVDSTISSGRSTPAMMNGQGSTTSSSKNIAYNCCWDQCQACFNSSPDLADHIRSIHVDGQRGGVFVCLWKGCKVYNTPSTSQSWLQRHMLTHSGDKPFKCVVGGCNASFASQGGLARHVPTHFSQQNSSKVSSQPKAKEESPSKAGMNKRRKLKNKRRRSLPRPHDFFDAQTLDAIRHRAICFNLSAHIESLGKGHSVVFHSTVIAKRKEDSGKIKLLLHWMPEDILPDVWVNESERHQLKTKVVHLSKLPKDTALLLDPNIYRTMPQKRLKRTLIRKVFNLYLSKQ

As usually defined, the IC50 is the concentration at which inhibition is half-maximal. `CCN(c1cc(C(F)(F)F)cc2c(NCc3c(C)cc(C)[nH]c3=O)nccc12)C1CCC(N(C)C)CC1` (stereo not drawn) [Compound Z-134]: the half-inhibitory concentration (IC50) under setting [1] was 117 nM.
Still for that read-out and setting: then `CCN(c1cc(-c2ccc(CN3CCOCC3)cc2)cc2c(NCc3c(C)cc(C)[nH]c3=O)nccc12)C1CCN(C(C)=O)CC1` [Compound Z-60], with 321 nM; and `CCN(c1cc(-c2ccc(N3CCNCC3)nc2)cc2c(NCc3c(C)cc(C)[nH]c3=O)nccc12)C1CCC(N(C)C)CC1` (stereo not drawn) [Compound Z-157], with 16 nM; and `CCN(c1cc(C(N)=O)cc2c(NCc3c(C)cc(C)[nH]c3=O)nccc12)C1CCOCC1` [Compound Z-18], with 284 nM.
As for `CCN(c1cc(-c2ccc(CN3CCNCC3)cc2)cc2c(NCc3c(C)cc(C)[nH]c3=O)nccc12)C1CCOCC1` [Compound Z-8, 3-((5-(ethyl (tetrahydro-2H-pyran-4-yl)amino)-7-(4-(piperazin-1-ylmethyl)phenyl)isoquinoline-1-ylamino)methyl)-4,6-dimethyl-2(1H)-one], the IC50 under setting [1] turned out to be 86 nM.
Same read-out and setting: with `CCN(c1cc(Cl)cc2c(NCc3c(C)cc(C)[nH]c3=O)nccc12)C1CCS(=O)(=O)CC1` [Compound Z-139] the figure was 418 nM; with `CCN(c1cc(-c2ccc(CN3CCOCC3)cc2)cc2c(NCc3c(C)cc(C)[nH]c3=O)nccc12)C1CCC(O)CC1` (stereo not drawn) [Compound Z-88], 164 nM; with `CCN(c1cc(C#CCN2CCOCC2)cc2c(NCc3c(C)cc(C)[nH]c3=O)nccc12)C1CCOCC1` [Compound Z-178], 348 nM.
Consider `CCN(c1cc(-c2ccc(N3CCOCC3)nc2)cc2c(NCc3c(C)cc(C)[nH]c3=O)nccc12)C1CCN(C(C)=O)CC1` [Compound Z-59], for which the half-maximal inhibitory concentration (IC50) under setting [1] came out at 277 nM.
`CCN(c1cc(-c2ccc(N3CCN(C)CC3)nc2)cc2c(NCc3c(C)cc(C)[nH]c3=O)nccc12)C1CCN(CCF)CC1` [Compound Z-76]: the 50% inhibitory concentration (IC50) under setting [1] came to 60 nM.
For the molecule `CCN(c1cc(C(=O)N(C)C)cc2c(NCc3c(C)cc(C)[nH]c3=O)nccc12)[C@H]1CC[C@H](N(C)C)CC1` [Compound Z-170], the IC50 under setting [1] turned out to be 374 nM.
Take `CCN(c1cc(Br)cc2c(NCc3c(C)cc(C)[nH]c3=O)nccc12)C1CCC(N(C)C)CC1` (stereo not drawn) [Compound Z-15, 3-((7-bromo-5-((4-(dimethylamino)cyclohexyl) (ethyl)amino)isoquinolin-1-ylamino)methyl)-4,6-dimethyl-2(1H)-one]: the concentration for half-maximal inhibition (IC50) under setting [1] is 91 nM.
Regarding `CCN(c1cc(-c2ccc(N3CCOCC3)nc2)cc2c(NCc3c(C)cc(C)[nH]c3=O)nccc12)C1CCN(C2CC2)CC1` [Compound Z-87], under setting [1], the 50% inhibitory concentration (IC50) worked out at 474 nM.
Turning to `CCN(c1cc(-c2cnn(C3CCN(C)CC3)c2)cc2c(NCc3c(C)cc(C)[nH]c3=O)nccc12)C1CCC(N(C)C)CC1` (stereo not drawn) [Compound Z-79], under setting [1], the concentration for half-maximal inhibition (IC50) was determined as 45 nM.
The same measure, in the same setting: then `CCN(c1cc(C(C)C)cc2c(NCc3c(C)cc(C)[nH]c3=O)nccc12)C1CCNCC1` [Compound Z-235, 3-((5-(ethyl (piperidin-4-yl)amino)-7-isopropylisoquinolin-1-ylamino)methyl)-4,6-dimethyl-2(1H)-one], with 129 nM; and `CCN(c1cc(-c2ccc(CN(C)C)cc2)cc2c(NCc3c(C)cc(C)[nH]c3=O)nccc12)C1CCOCC1` [Compound Z-30], with 298 nM; and `CCN(c1cc(-c2ccc(CN3CCOCC3)cc2)cc2c(NCc3c(C)cc(C)[nH]c3=O)nccc12)C1CCC(N(C)C)CC1` (stereo not drawn) [Compound Z-41], with 38 nM.
On to `CCN(c1cc(C(F)(F)F)cc2c(NCc3c(C)cc(C)[nH]c3=O)nccc12)C1CCNCC1` [Compound Z-13, 3-((5-(ethyl (piperidin-4-yl)amino)-7-(trifluoromethyl)isoquinolin-1-ylamino)methyl)-4,6-dimethylpyridine-2(1H)-one], for which the IC50 under setting [1] amounted to 92 nM.
For the molecule `CCN(c1cc(Cl)cc2c(NCc3c(C)cc(C)[nH]c3=O)nccc12)C1CCC(N(C)CCOC)CC1` (stereo not drawn) [Compound Z-145], under setting [1], the IC50 is 203 nM.
On the same count and under the same terms, with `CCN(c1cc(-c2ccc(N3CCOCC3)nc2)cc2c(NCc3c(C)cc(C)[nH]c3=O)nccc12)C1CCC(NC(C)=O)CC1` (stereo not drawn) [Compound Z-48] the figure was 303 nM; with `CCN(c1cc(-c2ccc(CN(C)C)nc2)cc2c(NCc3c(C)cc(C)[nH]c3=O)nccc12)C1CCC(N(C)C)CC1` (stereo not drawn) [Compound Z-128], 225 nM; with `CCN(c1cc(Cl)cc2c(NCc3c(C)cc(C)[nH]c3=O)nccc12)C1CCN(S(C)(=O)=O)CC1` [Compound Z-229], 429 nM.
On the same count and under the same terms, then `CCN(c1cc(-c2ccc(N3CCN(C)CC3)nc2)cc2c(NCc3c(C)cc(C)[nH]c3=O)ncc(F)c12)C1CCC(N(C)C)CC1` (stereo not drawn) [Compound Z-223, 3-((5-((4-(dimethylamino)cyclohexyl)(ethyl)amino)-4-fluoro-7-(6-(4-methylpiperazin-1-yl)pyridin-3-yl)isoquinolin-1-ylamino)methyl)-4,6-dimethyl-2(1H)-one], with 45 nM.
Regarding `CCN(c1cc(-c2ccc(C(=O)N3CCN(C)CC3)nc2)cc2c(NCc3c(C)cc(C)[nH]c3=O)nccc12)C1CCN(C(C)C)CC1` [Compound Z-124], the 50% inhibitory concentration (IC50) under setting [1] is 51 nM.
Consider `CCN(c1c(F)c(-c2ccc(N3CCN(C)CC3)nc2)cc2c(NCc3c(C)cc(C)nc3O)nccc12)[C@H]1CC[C@@H](N(C)C)CC1` [Compound Z-231, 3-((5-(((1S,4S)-4-(dimethylamino)cyclohexyl) (ethyl)amino)-6-fluoro-7-(6-(4-methylpiperazin-1-yl)pyridin-3-yl)isoquinolin-1-ylamino)methyl)-4,6-dimethyl-2(1H)-one], for which, under setting [1], the IC50 was 174 nM.
Regarding `CCN(c1cc(-c2cncc(C(F)(F)F)c2)cc2c(NCc3c(C)cc(C)[nH]c3=O)nccc12)[C@H]1CC[C@H](N(C)C)CC1` [Compound Z-77], the 50% inhibitory concentration (IC50) under setting [1] turned out to be 177 nM.
For the molecule `CCN(c1cc(-c2ccc(CN3CCOCC3)nc2)cc2c(NCc3c(C)cc(C)[nH]c3=O)nccc12)C1CCN(C(C)C)CC1` [Compound Z-69], the IC50 under setting [1] stood at 100 nM.
On to `CCN(c1cc(C#N)cc2c(NCc3c(C)cc(C)[nH]c3=O)nccc12)C1CCOCC1` [Compound Z-6, 1-((4,6-dimethyl-2-oxo-1,2-dihydropyridin-3-yl)methylamino)-5-(ethyl (tetrahydro-2H-pyran-4-yl)amino)isoquinoline-7-carbonitrile], for which the IC50 under setting [1] worked out at 611 nM.
Regarding `CCN(c1cc(C(=O)NC2CCN(C)CC2)cc2c(NCc3c(C)cc(C)[nH]c3=O)nccc12)C1CCOCC1` [Compound Z-163], under setting [1], the IC50 came out at 33 nM.
For `CCN(c1cc(-c2ccc(N3CCN(C)CC3)nc2)cc2c(NCc3c(C)n(C)[nH]c3=O)nccc12)C1CCC(N(C)C)CC1` (stereo not drawn) [Compound Z-216, 4-((5-((4-(dimethylamino)cyclohexyl)(ethyl)amino)-7-(6-(4-methylpiperazin-1-yl)pyridine-3-yl)isoquinolin-1-ylamino)methyl)-1,5-dimethyl-H-pyrazol-3-(2H)-one], the IC50 under setting [1] turned out to be 365 nM.
Take `CCN(c1cc(-c2ccc(NC3CCOCC3)cc2)cc2c(NCc3c(C)cc(C)[nH]c3=O)nccc12)C1CCOCC1` [Compound Z-32]: under setting [1], the half-inhibitory concentration (IC50) is 488 nM.
`CCN(c1cc(-c2ccc(CN3CCNCC3)nc2)cc2c(NCc3c(C)cc(C)[nH]c3=O)nccc12)C1CCOCC1` [Compound Z-152]: under setting [1], the IC50 was found to be 96 nM.
The same measure, in the same setting: then `CCN(c1cc(-c2ccc(Oc3cccnc3)cc2)cc2c(NCc3c(C)cc(C)[nH]c3=O)nccc12)C1CCC(N(C)C)CC1` (stereo not drawn) [Compound Z-78], with 198 nM; and `CCN(c1cc(C(=O)N(C)C2CCN(C)CC2)cc2c(NCc3c(C)cc(C)[nH]c3=O)nccc12)C1CCOCC1` [Compound Z-169], with 451 nM; and `CCN(c1cc(-c2ccccc2)cc2c(NCc3c(C)cc(C)[nH]c3=O)nccc12)C1CCC(N(C)C)CC1` (stereo not drawn) [Compound Z-75], with 128 nM.
On the same count and under the same terms, then `CCN(c1cc(-c2ccc(CN3CCNCC3)cc2)cc2c(NCc3c(C)cc(C)[nH]c3=O)nccc12)C1CCC(N(C)C)CC1` (stereo not drawn) [Compound Z-153], with 54 nM; and `CCN(c1cc(-c2ccc(CN3CCN(C)CC3)nc2)cc2c(NCc3c(C)cc(C)[nH]c3=O)nccc12)C1CCN(C2CC2)CC1` [Compound Z-84], with 83 nM; and `CCN(c1cc(-c2ccc(N3CCN(C)CC3)nc2)cc2c(NCc3c(C)cc(C)[nH]c3=O)nccc12)C1CCNCC1` [Compound Z-56], with 7 nM.
`CCN(c1cc(Br)cc2c(NCc3c(C)cc(C)[nH]c3=O)nccc12)C1CCOCC1` [Compound Z-3, 3-((7-bromo-5-(ethyl (tetrahydro-2H-pyran-4-yl)amino)isoquinolin-1-ylamino)methyl)-4,6-dimethyl-2(1H)-one]: the half-maximal inhibitory concentration (IC50) under setting [1] was 186 nM.
As to `CCN(c1cc(Cl)cc2c(NCc3c(C)cc(C)[nH]c3=O)nccc12)C1CC2(CNC2)C1` [Compound Z-207], under setting [1], the half-maximal inhibitory concentration (IC50) stood at 32 nM.
Turning to `CCN(c1cc(-c2ccc(C(=O)Nc3ccccn3)cc2)cc2c(NCc3c(C)cc(C)[nH]c3=O)nccc12)C1CCC(N(C)C)CC1` (stereo not drawn) [Compound Z-110], the IC50 under setting [1] was 67 nM.
The same measure, in the same setting: then `CCN(c1cc(N2CCN(C)CC2)cc2c(NCc3c(C)cc(C)[nH]c3=O)nccc12)C1CCC(N(C)C)CC1` (stereo not drawn) [Compound Z-187], with 213 nM.
As to `CCN(c1cc(-c2cnn(C)c2)cc2c(NCc3c(C)cc(C)[nH]c3=O)nccc12)C1CCOCC1` [Compound Z-7, 3-((5-(ethyl (tetrahydro-2H-pyran-4-yl)amino)-7-(1-methyl-1H-pyrazol-4-yl)isoquinoline-1-ylamino)methyl)-4,6-dimethylpyridin-2(1H)-one], the IC50 under setting [1] was found to be 481 nM.
`CCN(c1cc(C(N)=O)cc2c(NCc3c(C)cc(C)[nH]c3=O)nccc12)C1CCC(N(C)C)CC1` (stereo not drawn) [Compound Z-21]: the IC50 (read-out: EZH2 Y641F IC50, Recombinant PRC2 (EZH2-Y641F)) is 205 nM.
Turning to `CCN(c1cc(-c2cn[nH]c2)cc2c(NCc3c(C)cc(C)[nH]c3=O)nccc12)C1CCOCC1` [Compound Z-14], under setting [1], the half-inhibitory concentration (IC50) was determined as 426 nM.

The record behind these values is US20200262813A1, “1,5,7-TRISUBSTITUTED ISOQUINOLINE DERIVATIVES, PREPARATION THEREOF, AND USE THEREOF IN MEDICINES” (SHANGHAI HAIYAN PHARMACEUTICAL TECHNOLOGY CO., LTD., priority 2016, published 2020).
